Experiments:
Assay type in all cases: in vivo
[1] = system: Benthamiana tobacco (Nicotiana benthamiana); assay: Test Example 9: reduction of low-temperature stress in hydroponics of tobacco; settings: tobacco seedlings, medium with 0.1 ppm compound for 7 days; low-temperature stress 1.5±1.0° C. 7 days, then 3 days at 22° C.
Protocol: Evaluation Test for Reduction of Low-Temperature Stress in Hydroponics of Tobacco (Nicotiana benthamiana) Benthamiana tobacco (Nicotiana benthamiana) DMSO solutions containing each of the present compounds 1, 4 and 5 at a concentration of 100 ppm were prepared. […] These media were used in the treated-group. In a non-treated group, a medium obtained by adding a 1/1,000 volume of DMSO to a Murashige-and-Skoog medium at ½ concentration was used. The seeds of tobacco (Nicotiana benthamiana) were sown on 5 μL of the medium, and incubated at 22° C. overnight. Thereto was added 45 μL of a medium containing each present compound at a concentration of 0.1 ppm, and cultivated for 7 days under the conditions of an illuminance of 4,000 lux, a temperature of 22° C. and a day length of 16 hours, thereby treating the seedlings of tobacco (Nicotiana benthamiana) with the test compound. In the non-treated group, 45 μL of a medium obtained by adding a 1/1,000 volume of DMSO to a Murashige-and-Skoog medium at ½ concentration was added, and treated in the same manner as above. The seedlings of tobacco (Nicotiana benthamiana) treated with the present compounds were cultivated for 7 days under the conditions of an illuminance of 2,000 lux, a temperature of 1.5±1.0° C., and a day length of 16 hours, thereby subjecting to low-temperature stress treatment. The plants of tobacco (Nicotiana benthamiana) subjected to low-temperature stress treatment was cultivated for 3 days under the conditions of an illuminance of 4,000 lux, a temperature of 22° C., and a day length of 16 hours, and then the green leaf area of the plants was visually evaluated. Completely dead plant was scored as 0, the plant without low-temperature stress treatment was scored as 5, the green area was rated on a 6-point scale in ⅕ increments, and the score of not less than 1 was regarded as effective in reducing the stress. As a result of visual evaluation, the green leaf area of plants in the treated group, wherein the plants were treated with the present compound 1, 4 or 5 was much larger than that in the non-treated group.

Wheat (cultivar: Apogee) = assay: Test Example 10: reduction of high-temperature stress by spraying treatment of wheat; settings: spray solution 1 ppm, high-temperature stress 36° C./32° C. 7 days, 90 days after the stress treatment
Protocol: Evaluation Test for Reduction of High-Temperature Stress by Spraying Treatment of Wheat
Five wheat seeds were sown in the culture soil (AISAI) in each plastic pot and cultivated for 28 days in an artificial weather control room under the conditions of a temperature of 18° C. in daytime/15° C. in night, and an illuminance of 7,000 lux. Before the stress test, 3 individuals per pot were removed.
To 0.5 mg of the present compound 1 were added 120 mg of a mixture (weight ratio 1:1) of white carbon and ammonium polyoxyethylene alkyl ether sulfate and 300 μl of water. The mixture was finely ground by a wet grinding method to obtain a flowable formulation of the present compound 1. This flowable formulation was diluted with 500 ml of water. The mixture was diluted with RINO (manufactured by NIHON NOHYAKU CO., LTD) as a spreading agent to 5,000-fold dilution to obtain a spray solution containing 1 ppm of the present compound 1. […]
After the high-temperature stress treatment, the plants were cultivated in an artificial weather control room under the conditions of a temperature of 18° C. in daytime/15° C. in night, and a illuminance of 7,000 lux. Then, 90 days after the high-temperature stress treatment, the number and the weight of seeds in ears of the tested plants in 7 or 8 pots were measured, and the average values of the number and the weight of seeds per one ear were calculated. […]

[2] = system: Rice (cultivar: Nipponbare); assay: Test Example 11: reduction of drought stress by treatment of rice seeds; settings: rice seed treatment, 100 g per 100 kg of seeds; drought stress 2 days, then 14 days cultivation
Protocol: Evaluation Test for Reduction of Drought Stress by Treatment of Rice Seeds Rice (cultivar: Nipponbare) A blank slurry solution containing 5% (V/V) color coat red (Becker Underwood, Inc.), 5% (V/V) CF-Clear (Becker Underwood, Inc.) and 1% Maxim XL (Syngenta) was prepared. A slurry solution was prepared by dissolving the present compound 1 in the blank slurry solution such that 100 g of the compound is applied to each 100 kg of rice seeds. In a 50-ml centrifuge tube (manufactured by AGC TECHNO GLASS CO., LTD.), 0.3 ml of the slurry solution was placed for each 10 g of rice seeds and stirred until the solution was dried, thereby coating the seeds. In addition, seeds were coated with the blank slurry solution and used as seeds for a non-treated group. A filter paper was placed on the holes of a plug tray having 406 holes, and the rice seeds treated above were sown on the filter paper. […] Fourteen (14) days after the treatment, the fresh weight of the overground parts of five test plants in each treated group was measured. The experiment was performed in three replications in each treated group and the average value was calculated. […]

For COC(=O)c1cc2cc(C(F)(F)F)ccc2s1 [compound 1], the “green leaf area of plants (visual evaluation) vs non-treated group” value [1] was “much larger”, the “number of seeds per one ear vs non-treated group” value (Wheat (cultivar: Apogee)) was “much larger” and the “weight of seeds per one ear vs non-treated group” value (Wheat (cultivar: Apogee)) was “much larger”. For the same compound, the “fresh weight of the overground part of plants vs non-treated group” value [2] was “much heavier”.

Reference: patent publication US9119396B2, “Method for promoting plant growth” (SUMITOMO CHEMICAL COMPANY, LIMITED, priority 2011, dated 2015)
